Laboratory results: patent US7494976B2, “Caveolin peptides and their use as therapeutics” (Yale University, priority 2000, dated 2009)
“Also recorded” adds a separate entry of the source.

Key:
[1] = test system: carrageenan induced paw edema; test: Murine carrageenan induced paw edema model; type: in vivo, mouse; conditions: 1 mg/kg, paws 48 hours post-injection, H&E
Procedure: For in vivo inflammation studies the murine carrageenan induced paw edema model was used. Briefly, male, Swiss mice (25-30 grams) were divided in groups (n=6-7) and lightly anaesthetised with methoxyflurane. Each group of animals received a subplantar administration of 50 μl of 1% (w/v) λ carrageenan. Paw volume was measured using a hydroplethismometer modified for measuring small volumes (Ugo Basile) immediately before the carrageenan injection and twenty-four and forty-eight hours thereafter. The increase in paw volume is evaluated as the difference between paw volume at each time point and the basal volume. AP-Cav (0.3, 1 mg/kg i.p.) AP-Cav-X (1 mg/kg i.p.) and dexamethasone (0.1 mg/kg s.c.) were administered at the time of carrageenin administration (time zero) and at twenty-four and forty-eight hours. In a separate series of experiments, forty-eight hours post carrageenan injections, animals were sacrificed by cervical dislocation and both paws were cut. The right paws were embedded in OCT medium and cross sections ([…] of thickness) were obtained for staining with hematoxylin and eosin.

[2] = test system: isolated mouse aorta; test: Ach-induced relaxation of isolated mouse aortic rings (organ bath); conditions: 10 μM peptide, twenty hours incubation, PE precontracted rings
Procedure: (§1) For isolated mouse aortic rings preparations, male C57 black mice (5-7 weeks of age) were anesthetized with methoxyflurane and sacrificed by exsanguination. The thoracic aorta was dissected and cut into cylindrical segments of three millimeters in length. Using a sterile 48-well tissue culture plate, each ring was incubated in a total volume of one ml with either peptides or vehicle (DMSO) diluted in DMEM supplemented with penicillin (100 units/ml), streptomycin (100 μg/ml) and L-glutamine (1 mM). The plate was incubated with 5% CO2. Following incubation with the peptides (one, six, twelve or twenty hours), rings were washed in oxygenated (95% O2-5% CO2) Krebs-Henseleit bicarbonate buffer solution (KHS) of the following composition (NaCl—118.3 mmol/L, KCl—4.7 mmol/L, CaCl2—2.5 mmol/L, MgSO4—1.2 mmol/L, KH2PO4—1.2 mmol/L, NaHCO3—25 mmol/L, glucose—5.6 mmol/L at 37° C. with ibuprofen (10 μM). The rings were suspended by two tungsten wires ([…] thickness) inserted into the lumen and mounted in a vessel myograph system (five ml chamber, Kent Scientific). The mouse aortas were submitted to a resting tension of 1.5 grams and isometric tension was recorded using a force transducer coupled to a MacLab data acquisition system. […] In some experiments concentration-response curves to the contractile effects of PE were monitored.

[3] = test system: prostacyclin production; test: Prostacyclin release from mouse aortic rings (6-keto-PGF1α by EIA); conditions: peptide twenty hours; Ach 1 μM thirty minutes
Procedure: To further test the specificity of AP-Cav, Ach-induced prostacyclin production was measured. For measurement of prostacyclin release, after twenty hour incubation period, aortic segments (4-5 mm) were placed in sterile 48-well tissue culture plates with 300 μl of KHS at 37° C. for thirty minutes in an incubator. Then aliquots of […] were taken in order to measure the basal release of prostacyclin. Ach (1 μM) was added and the plate was kept in the incubator for an additional thirty minutes. Aliquots were then taken in order to measure the Ach-stimulated release of prostacyclin. This protocol was performed in absence or in presence of ibuprofen (10 μM). The aliquots were frozen and prostacyclin release was measured as the stable breakdown product, 6-keto-PGF1α, by EIA (Amersham).

[4] = test system: isolated mouse aortas; test: Sodium nitroprusside induced (endothelium independent) relaxation of mouse aorta; conditions: 10 μM peptide, twenty hours; SNP 10 μM
[5] = test system: vascular leakage; test: Mustard oil induced Evans blue extravasation in the mouse ear (vascular permeability); type: in vivo; conditions: 2 mg/kg i.p., forty-five minute pretreatment; read after thirty minutes
Procedure: FIG. 10—AP-caveolin peptide reduces vascular leakage. Mice were pretreated with AP-Cav, AP-Cav-X (2 mg/kg of each, i.p.) or L-NAME (30 mg/kg, i.p.) for forty-five minutes followed by Evans blue administration (30 mg/kg, i.v.). Mustard oil was applied to the ventral and dorsal side of the right ear one minute after Evans blue injection. The extent of Evans blue extravasation was assessed after thirty minutes (n=4 mice per group for vehicle and L-NAME treated mice and n=5 for AP-Cav and AP-Cav-X treated mice; *p<0.05). (D) Representative pictures of mice subjected to mustard oil induced inflammation.
To directly assess if the AP-peptide can influence vascular leakage in an additional model, we treated mice with vehicle, AP-Cav, AP-Cav-X (2 mg/kg, i.p. for each; forty-five minute pretreatment) or L-NAME (30 mg/kg, i.p., […] pretreatment) and examined the ability of mustard oil to induce the extravasation of Evans blue, as an index of vascular permeability. […] Thus, in two distinct models, AP-Cav reduces inflammation likely through attenuating eNOS-dependent blood flow and/or permeability changes evoke by inflammatory stimuli.

[6] = test system: HepG-2 tumors; test: HepG-2 tumor growth in nude mice; type: in vivo, mouse; conditions: 2.5 mg/kg, day fourteen
Procedure: The ability of the AP-Cav peptide to influence tumor growth in vivo was also examined. Nude mice were injected with the HepG-2 cells, a human hepatocarcinoma line, and the effects of AP-Cav and AP-Cav-X examined after daily administration of the peptides intraperitoneal. For HepG-2 cells implants in nude mice, the human hepatocarcinoma cell line, HepG-2, was cultured in minimal essential media with 10% fetal bovine serum, 2 mM L-glutamine, penicillin and streptomycin. Cells were grown on 150 mm dishes up to 80% confluence, trypsinized and ressuspended in serum free media. Viable cells were counted using the trypan blue exclusion method. A cell suspension was prepared at a density of 5×10^7 cells/ml. Nude mice were then injected in the flank with 100 μl of the HepG-2 cell suspension.
When the tumors reached a solid palpable mass (7-10 days), treatment with the different drugs began. Peptides were dissolved in 0.01% (v/v) DMSO and administered daily by i.p. injection (100 μl/20 gram mouse) for fourteen days. Tumor volume was determined every day using the formula width^2×length×0.52. For histochemistry tumors were excised from the animal at day fourteen, washed in phosphate buffered saline and fixed in 70% ethanol. […] Images were captured using a Zeiss microscope coupled to a CCD camera and were recorded with the NIH Image program.

[7] = test system: isolated mouse aorta; test: Phenylephrine-induced contraction of isolated mouse aorta; conditions: 10 μM peptide preincubation
Procedure: as §1

[8] = test system: mouse aortic rings; test: L-NAME induced contraction of peptide-pretreated mouse aortic rings; conditions: vessels pretreated with 10 μM peptide; L-NAME 100 μM
Procedure: as §1, with “monitored. […]” for “monitored.”

[9] = test system: bovine aortic endothelial cells (BAEC); test: Ionomycin stimulated NO release from cultured endothelial cells (chemiluminescence); type: cell-based; conditions: 1 μM peptide six hours; ionomycin 1 μM thirty minutes
Procedure: For measurement of nitric oxide release from cultured endothelial cells, bovine aortic endothelial cells (BAEC) were cultured in high glucose Dulbecco's modified Eagle's medium (DMEM) containing 10% (v/v) fetal bovine serum, penicillin, streptomycin and L-glutamine. For measurement of ionomycin stimulated NO release, confluent BAEC were cultured in […]. Cells were washed and media was changed to serum free DMEM containing peptides or vehicle (0.01% DMSO). Following a six hour incubation, peptides were washed out and cells were stimulated with ionomycin (1 μM) for thirty minutes. Media was collected and processed for the measurement of nitrite (NO2—), the stable breakdown product of NO in aqueous solution, by NO-specific chemiluminescence. Samples containing NO2— were refluxed in glacial acetic acid containing sodium iodide. […] In all experiments, NO2— release was inhibitable by a NOS inhibitor.

Substance: AP-Cav-X: Scrambled control peptide Cav-X (WGIDKAFFTTSTVTYKWFRY, SEQ ID NO: 9) fused to the antennapedia internalization sequence; SEQ ID NO: 12 (RQIKIWFQNRRMKWKKWGIDKAFFTTSTVTYKWFRY)
- cellular infiltration into the sites of inflammation (histology) [1]: did not show marked differences
- effect on Ach-induced relaxation [2]: did not influence Ach-induced relaxation
- basal or Ach stimulated prostacyclin production (6-keto-PGF1α) [3]: Neither AP-Cav-X nor AP-Cav influenced; also recorded: do not affect Ach-induced prostacyclin release
- effect on vasorelaxant properties of sodium nitroprusside [4]: had no effect
- vascular leak (Evans blue extravasation) [5]: dilated vessels and diffuse blue dye in the periphery of the right ear
- tumor morphology (hematoxylin and eosin) [6]: classical epitheliod appearance and were highly vascularized
- potentiation of the vasoconstrictor actions of phenylephrine [7]: but not AP-Cav-X resulted in potentiation
- further increase in isometric tension by L-NAME [8]: further increased isometric tension
- calcium ionophore stimulated NOx release [9]: but not AP-Cav-X blocked
